Reference: patent US7993681B2, “Methods, compositions and devices for inducing stasis in tissues and organs” (Fred Hutchinson Cancer Research Center, priority 2003, dated 2011)

Legend:
human keratinocytes = test: Preservation of human skin in carbon monoxide, keratinocyte colony formation; type: cell-based
Experimental: Three human foreskins were obtained for this purpose. The foreskin tissue was preserved in keratinocyte growth medium (KGM) containing insulin, EGF (0.1 ng/ml), hydrocortisone ([…]) and bovine pituitary extract (approx. 50 micrograms/ml of protein). Foreskins were rinsed in PBS, and excess fatty tissue was removed. Each foreskin sample was divided into 2 equal pieces. Each piece was placed into a separate container containing a solution of PBS with 24 mg/ml of Dispase II (from Bacillus Polymyxa EC 3.4.24.4:Roche Diagnostics Corp., Indianapolis, Ind.). One container (containing a foreskin piece in PBS with Dispase II) was kept in a humid chamber in a fume hood. The other container (with the other half of the foreskin in PBS with Dispase II) was placed in the same fume hood in an environmental chamber perfused with humidified 100% CO. Both samples were maintained at room temperature for 24 hrs. Methods used to establish defined atmospheric conditions were identical to those used in Example 1.
Following the 24 hr exposure to normoxia or 100% CO, keratinocytes were isolated from the foreskins according to the method described by Boyce et al. (1983; 1985; each of which is incorporated herein by reference in its entirety). Briefly, the epidermis from each foreskin sample was removed to a fresh dish containing PBS. The epidermis was minced and homogenized prior to incubation in 3 ml of 0.05% Trypsin, 1 mM EDTA for 5 minutes, at room temperature, to separate basal cells from the epidermis. After incubation, 6 ml of 400 μg/ml (micrograms per ml) Soybean Trypsin Inhibitor, 1 mg/ml BSA was added and the samples were centrifuged at 900 RPM. The supernatant from each sample was discarded and the sample pellets were resuspended in 10 ml of KGM. Each sample was split into two 10 cm plates each of which contained 5 ml KGM and 100 μl of HEPES pH 7.3 (N-2-hydroxyethylpiperazine-N′-2-ethane sulfonic acid). The plates were incubated in a 37° C. incubator perfused with 95% room air, 5% carbon dioxide for five days.
Cells were inspected visually using an inverted phase contrast microscope. […] Quantitation of the number of viable keratinocytes as judged by colony formation was quantified for two of the three foreskins.

humans [1] = conditions: around 1000 ppm, more than around 1-2 minutes; cited from earlier work
C. elegans embryos = test: Viability of nematodes in carbon monoxide based atmospheres; type: in vivo; conditions: for Viability to adulthood: 0.25 kPa O2/CO, 24 hrs
Description: To achieve specific atmospheric conditions the following apparatus was used: a glass syringe barrel having a tip with a locking device such as a LUER-LOK with the large opening of the barrel sealed with a custom-machined steel and rubber fitting to make an airtight seal was locked to via locking device to the inlet port of an environmental chamber having an inlet and an outlet port each fitted with a locking devices such as a LUER-LOK fitting. A defined gas was humidified and provided to the environmental chamber by first venting the gas from a compressed tank (Byrne Specialty Gas, Seattle, Wash.) through a gas washing bottle (500 ml Kimex) filled with double distilled water. The gas washing bottle was connected to the environmental chamber past a gas-flow meter. A gas flow meter was used to provide a regulated 70 cc/min flow through the environmental chamber throughout the 24 hr incubation.
To test whether induced, reversible stasis could be achieved in C. elegans nematodes, 2-cell C. elegans embryos, L3 larvae or adult nematodes were collected and exposed to either an environment of effectively 100% CO, an environment of 100% N2, an environment comprising 500 ppm oxygen balanced with carbon monoxide, or to environments comprising 100, 500 or 1000 ppm oxygen balanced with nitrogen at room temperature. Nematodes were visualized using differential interference contrast microscopy (also known as Nomarski optics). Images were collected and analyzed using NIH image and Adobe Photoshop 5.5. Embryos are approximately 50 μm in length.
Environmental chambers and apparatuses. Oxygen deprivation experiments were carried out using a custom atmospheric chamber designed by W. Van Voorhies (Van Voorhies et al., 2000). The chamber is a 30 mL glass syringe (Fisher #14-825-10B) fitted with a custom steel stopper that is lined with two viton o-rings to ensure a tight seal. The stopper is bored through and has a steel lure lock on the exterior face so that a hose carrying compressed gas can be attached. A defined gas mixture is delivered to the chamber at a constant pressure and flow rate from compressed tanks by passing first through a rotometer (Aalborg, flow-tube number 032-41ST) or mass flow controller (Sierra Instruments #810) to monitor flow rate and then through a 500 ml gas washing bottle (Fisher #K28220-5001) containing 250 ml water to hydrate the gas. ¼″ OD nylon (Cole-Parmer #P-06489-06) or FEP (Cole-Parmer #A-06450-05) tubing was used and connections between tubing and the regulators and between the tubing and the rotometers were made with brass John-Guest-type fittings (Byrne Gas). All other connections were made with either microflow quick-connect fittings (Cole-Parmer #A-06363-57, #A-06363-52) or standard lure fittings (Cole-Parmer #A-06359-37, #A-06359-17).
Viability of nematodes in carbon monoxide based atmospheres. 30-60 embryos were harvested from continuously maintained Bristol N2 and hif-2(ia04) strains as described above. Environmental chambers were continuously perfused at room temperature with pure CO (grade CP) or 500 ppm O2/CO at 70 cc/min for 24 hrs. To achieve 2500 ppm O2/CO or 2500 ppm O2/N2, 5000 ppm O2/N2 was mixed at a 1:1 ratio with either pure CO or pure N2 using two mass flow controllers (Sierra Instruments 810) to precisely monitor flow. Each gas was delivered into a 3-way valve (Cole-Parmer #A-30600-23) at 50 cc/min and the resulting mixture was then passed through a gas washing bottle and into an environmental chamber throughout the 24 hour exposure. All gases were supplied by Byrne Gas (Seattle, Wash.). The 500 ppm O2/CO mixture was certified to 2% of the oxygen content and contained 7000 ppm N2 to ensure a consistent O2/CO ratio throughout the use of the tank.
Cell biological analysis. […]

humans [2] = conditions: cited from earlier work
mice [3] = test: Core body temperature, heart rate and movement of mice exposed to H2S (telemetry); type: in vivo, mouse
Description: Implantation of telemetry devices.
(§1) Exposure of Mice to Regulated Atmosphere.
Regulation of Ambient Temperature. […] Mice were exposed to regulated atmosphere as described above.

mice [4] = test: Respirometry of mice exposed to H2S; type: in vivo, mouse
Experimental: as §1
Measurements were over a period of 15 minutes, with the mice in a 0.5 L sealed environmental chamber with flow rates of 500 cc/min. Consumption of oxygen is obtained by subtracting the oxygen concentration when the mouse is present, from the control when the mouse is absent. Likewise, production of carbon dioxide is obtained by subtracting the carbon dioxide concentration when the mouse is present from the control when the mouse is absent. RQ stands for respiratory quotient, and is equal to the ratio of carbon dioxide produced to oxygen […]. […] The change in the respiratory quotient reflects the disparity oxygen consumption and carbon dioxide production by the mice in the presence or absence of the H2S.

mice [5] = conditions: 80 ppm, cited from earlier work
rats = conditions: cited from earlier work
mice [6] = conditions: SHIRPA tests before and after exposure
[7] = warming phase after 80 ppm, cabinet 10.5° C.
[8] = 80 ppm, 15 minutes, 0.5 L chamber, 500 cc/min

Question: For `[C-]#[O+]` [CO, Carbon monoxide], which “skin cell survival in CO versus room air” value (human keratinocytes; 100% CO, 24 hrs, human skin) is on record?
Answer: 100 fold

Question: What about the Total colonies (human keratinocytes; Foreskin 1, 100% CO 24 hr) of the same molecule?
Answer: 542 colonies (many of which

Question: And the Total colonies (human keratinocytes; Foreskin 2, 100% CO 24 hr)?
Answer: 780 colonies (many of which

Question: What about the “growth of keratinocyte populations” value (human keratinocytes; foreskin 24 hr in 100% CO at room temperature, then five days culture, three foreskins) of the same molecule?
Answer: significant growth

Question: What about the lethality (humans [1]) of the same molecule?
Answer: can expire

Question: What about the embryogenesis during exposure (C. elegans embryos; 0.05 kPa O2 balanced with carbon monoxide) of the same molecule?
Answer: arrested embryogenesis

Question: What about the Viability to adulthood (C. elegans embryos; hif-1(ia04) embryos) of the same molecule?
Answer: 83.9% ± 13.8

Question: And the Viability to adulthood (C. elegans embryos; wild-type (N2 strain) embryos)?
Answer: 78.7%

Question: What about the “lethality and suspended animation” value (C. elegans embryos; 100% carbon monoxide, 24 hr, room temperature, nematodes) of the same molecule?
Answer: not lethal and induced reversible suspended animation

Question: What about the “progression through embryogenesis during exposure” value (C. elegans embryos; 101 kPa CO) of the same molecule?
Answer: did not progress through embryogenesis

Question: What about the “suspended animation and survival” value (C. elegans embryos; 500 ppm oxygen balanced with carbon monoxide, 24 hr) of the same molecule?
Answer: entered into suspended animation and survived

Question: For `S` [H2S, Hydrogen sulfide], which “acute effect of a single breath” value (humans [2]; atmosphere with 0.1% hydrogen sulfide) is on record?
Answer: immediately collapse

Question: What about the “OSHA limit for humans” value (humans [2]) of the same molecule?
Answer: 10 ppm

Question: What about the “acute effect of exposure” value (humans [2]; extreme levels (500 ppm)) of the same molecule?
Answer: sudden collapse and unconsciousness

Question: What about the core temperature (mice [3]; 80 ppm, 90 min, incubator lowered to 18° C., first mouse) of the same molecule?
Answer: 28.6 °C

Question: And the heart rate (mice [3]; 80 ppm, 3 hrs, dropped from 600 bpm)?
Answer: 250 bpm

Question: And the core temperature (mice [3]; 80 ppm, 3 hrs, incubator 18° C., second mouse)?
Answer: 18.6 °C

Question: What about the “recovery after rewarming in room air” value (mice [3]; 80 ppm, 6 hrs, seven mice) of the same molecule?
Answer: successfully recovered

Question: And the “lowest average core body temperature” value (mice [3]; 80 ppm, 6 hrs, seven mice, ambient temperature 13° C.)?
Answer: 15 °C

Question: What about the “lowest core body temperature recorded” value (mice [3]; 80 ppm, ambient dropped to less than 10° C. (FIG. 7)) of the same molecule?
Answer: 10.7 °C

Question: And the “time to recover activity after removal from gassing chamber” value (mice [3]; 80 ppm, cabinet 10° C., non-telemetry mouse)?
Answer: approximately 90 min

Question: And the “core temperature (estimation from slope of the drop)” value (mice [3]; 80 ppm, cabinet 10° C., telemetry mouse, electronics failed at 15.3° C.)?
Answer: approximately 12.5 °C

Question: And the core body temperature (mice [3]; 80 ppm, cabinet 10.5° C., approximately six hours)?
Answer: 10.5 °C

Question: What about the “time to return to normal range of core temperature and activity” value (mice [3]; after 90 min at 80 ppm, chamber perfused with room air) of the same molecule?
Answer: ≤ 60 min

Question: What about the “behavior of the animals after exposure” value (mice [3]; maintained for 4 weeks after 6 hr at 80 ppm, 15° C.) of the same molecule?
Answer: no apparent change in the behavior

Question: And the “core body temperature at which normal movement and respiration were fully apparent” value (mice [3]; [7])?
Answer: 25 °C

Question: And the “core body temperature at which weak respiration was observed” value (mice [3]; [7])?
Answer: 14 °C

Question: What about the “decrease in CO2 production” value (mice [4]; 80 ppm (FIG. 4A)) of the same molecule?
Answer: approximately 3 fold

Question: And the “time to decrease in CO2 production / new baseline” value (mice [4]; 80 ppm (FIG. 4A))?
Answer: approximately 5 minutes

Question: And the “drop in carbon dioxide production” value (mice [4]; [8])?
Answer: 3-4 fold

Question: What about the “drop in oxygen consumption” value (mice [4]; [8]) of the same molecule?
Answer: 2-3 fold

Question: And the “decrease in cellular respiration” value (mice [4]; 80 ppm, core temperature 15° C.)?
Answer: 1-20 fold

Question: What about the RQ (mice [4]; H2S present (80 ppm)) of the same molecule?
Answer: 0.58

Question: What about the Consumption of oxygen (mice [4]; H2S present (80 ppm), control minus mouse present) of the same molecule?
Answer: 1300 ppm

Question: What about the “[CO2] ppm” value (mice [4]; mouse present, H2S present (80 ppm)) of the same molecule?
Answer: 750 ppm

Question: And the “adverse effects incl. gross and histopathological examination” value (mice [5]; 6 hrs per day, 5 days per week, 90 days)?
Answer: no observed adverse effect

Question: What about the tolerability (mice [5]; exposures lasting up to ten weeks) of the same molecule?
Answer: innocuous

Question: And the perinatal neurotoxicity (rats; 20 or 50 ppm, 7 hours per day, gestation through post-natal day 21, rats)?
Answer: longer dendritic branches with reduced aborization of cerebellar Purkinje cells

Question: And the “adverse effects incl. gross and histopathological examination” value (rats; 80 ppm, 6 hrs per day, 5 days per week, 90 days, rats)?
Answer: no observed adverse effect

Question: What about the “perinatal study, neuropathology and behavior of rat pups” value (rats; 80 ppm) of the same molecule?
Answer: no neuropathological effects

Question: What about the discriminated avoidance responses (rats; moderate levels, immediately after end of exposure, rats) of the same molecule?
Answer: inhibits discriminated avoidance responses

Question: And the “radial arm maze learning” value (rats; moderate levels, rats)?
Answer: interferes with the ability of rats to learn a baited radial arm maze task

Question: And the “behavioral differences after gas exposure” value (mice [6])?
Answer: no detectable behavioral differences
